IC50 data for 16 molecules are collected here from patent US20240246967A1, “AXL COMPOUNDS” (ARCUS BIOSCIENCES, INC., priority 2021, published 2024).

In one assay the target is T1, human MER (Homo sapiens, UniProt Q12866).
T1 construct: purchased Invitrogen
T1 sequence (Q12866 21-999): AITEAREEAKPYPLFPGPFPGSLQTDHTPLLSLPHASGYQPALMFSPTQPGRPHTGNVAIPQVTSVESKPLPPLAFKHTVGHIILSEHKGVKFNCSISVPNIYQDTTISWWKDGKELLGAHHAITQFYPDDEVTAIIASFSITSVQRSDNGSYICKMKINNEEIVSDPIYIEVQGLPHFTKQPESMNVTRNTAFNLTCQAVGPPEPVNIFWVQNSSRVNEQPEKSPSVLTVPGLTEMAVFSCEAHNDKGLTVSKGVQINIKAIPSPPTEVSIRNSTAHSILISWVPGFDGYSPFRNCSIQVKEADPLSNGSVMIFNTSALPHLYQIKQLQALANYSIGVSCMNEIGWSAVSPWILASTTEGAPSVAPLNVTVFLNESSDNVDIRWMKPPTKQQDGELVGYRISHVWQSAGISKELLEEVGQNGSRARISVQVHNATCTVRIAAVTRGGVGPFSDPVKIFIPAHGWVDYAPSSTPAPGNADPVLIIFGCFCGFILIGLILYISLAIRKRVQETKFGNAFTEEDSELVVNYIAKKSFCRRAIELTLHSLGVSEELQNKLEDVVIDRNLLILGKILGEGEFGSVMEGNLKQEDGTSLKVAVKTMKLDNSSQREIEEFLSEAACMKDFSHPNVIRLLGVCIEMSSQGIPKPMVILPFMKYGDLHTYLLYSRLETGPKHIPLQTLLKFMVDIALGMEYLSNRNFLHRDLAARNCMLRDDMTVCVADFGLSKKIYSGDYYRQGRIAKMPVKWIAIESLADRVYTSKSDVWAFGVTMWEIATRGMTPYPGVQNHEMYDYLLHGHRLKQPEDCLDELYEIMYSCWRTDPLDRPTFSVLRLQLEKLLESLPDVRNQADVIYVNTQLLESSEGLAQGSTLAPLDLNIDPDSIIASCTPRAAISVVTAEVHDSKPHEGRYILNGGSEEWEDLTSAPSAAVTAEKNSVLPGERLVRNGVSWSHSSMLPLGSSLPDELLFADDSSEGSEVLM
The assay can be described thus: HTRF KinEASE-TK biochemical potency assay, MER. Particulars: 1 nM MER, 700 μM ATP, 800 nM TK Substrate-biotin. Put shortly: (§1)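 Final conditions: 5 nM AXL, 1 nM TYRO3 or MER, 50 mM HEPES pH 7.4, 10 mM MgCl2, 0.01% BSA, 1 mM DTT, 700 μM ATP. Reaction ran 2 h at RT after 1 h preincubation with compound; HTRF signal read at 665/620 nm.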

A further assay addresses T2, human TYRO3 (Homo sapiens, UniProt Q06418).
T2 construct: purchased Invitrogen
T2 sequence (Q06418 41-890): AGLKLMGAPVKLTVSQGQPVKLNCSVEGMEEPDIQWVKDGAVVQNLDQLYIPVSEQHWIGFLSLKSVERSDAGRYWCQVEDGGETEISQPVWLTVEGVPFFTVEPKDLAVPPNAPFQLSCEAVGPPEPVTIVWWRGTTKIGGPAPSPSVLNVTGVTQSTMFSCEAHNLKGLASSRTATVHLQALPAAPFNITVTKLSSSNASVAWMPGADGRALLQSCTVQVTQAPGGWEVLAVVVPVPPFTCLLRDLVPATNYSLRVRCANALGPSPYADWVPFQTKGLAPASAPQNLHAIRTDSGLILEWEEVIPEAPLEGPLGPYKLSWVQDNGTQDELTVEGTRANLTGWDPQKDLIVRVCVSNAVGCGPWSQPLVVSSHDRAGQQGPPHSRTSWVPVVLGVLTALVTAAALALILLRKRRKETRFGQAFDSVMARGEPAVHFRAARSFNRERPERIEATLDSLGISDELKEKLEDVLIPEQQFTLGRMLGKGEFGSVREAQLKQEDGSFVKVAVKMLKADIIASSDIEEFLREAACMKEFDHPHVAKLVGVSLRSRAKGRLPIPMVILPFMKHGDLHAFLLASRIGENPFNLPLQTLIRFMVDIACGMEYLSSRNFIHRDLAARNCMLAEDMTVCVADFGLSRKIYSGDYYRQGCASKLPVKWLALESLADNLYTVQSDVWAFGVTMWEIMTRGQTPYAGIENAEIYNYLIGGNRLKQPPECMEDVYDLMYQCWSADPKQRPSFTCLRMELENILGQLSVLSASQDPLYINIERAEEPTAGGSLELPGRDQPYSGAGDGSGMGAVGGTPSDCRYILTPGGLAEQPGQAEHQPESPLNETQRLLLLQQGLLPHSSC
The assay is described as follows: HTRF KinEASE-TK biochemical potency assay, TYRO3. The note with it: 1 nM TYRO3, 700 μM ATP, 800 nM TK Substrate-biotin. Put shortly:
as §1
(Time-resolved FRET reads energy transfer from a long-lived donor to a nearby acceptor.)

The structures appear in SMILES notation.

As for `CC1(N2CCOCC2)CCc2ccc(-c3cnc4[nH]nc(-c5ccc(S(=O)(=O)C6CC6)cc5)c4c3)cc2CC1` (centres unmarked) [Example 2, 4-(2-{3-[4-(Cyclopropanesulfonyl)phenyl]-1H-pyrazolo[3,4-b]pyridin-5-yl}-7-methyl-6,7,8,9-tetrahydro-5H-benzo[7]annulen-7-yl)morpholine], the IC50 against human MER and on human TYRO3 was > 1000 nM each time.

Regarding `Cc1cc(-c2n[nH]c3ncc(-c4ccc5c(c4)CCC(N4CCCC4)CC5)cc23)cc(F)c1C(N)=O` (centres unmarked) [Example 79, 2-Fluoro-6-methyl-4-(5-(7-(pyrrolidin-1-yl)-6,7,8,9-tetrahydro-5H-benzo[7]annulen-2-yl)-1H-pyrazolo[3,4-b]pyridin-3-yl)benzamide], the IC50 (in general, the concentration that gives 50% inhibition) against human MER was 100 to 1000 nM; against human TYRO3, < 100 nM.

Regarding `COc1cc(-c2n[nH]c3ncc(-c4ccc5c(c4)CCC(C)(N4CCC[C@H]4C)CC5)cc23)ccc1S(N)(=O)=O` (stereo partly drawn) [Example 87, 2-Methoxy-4-(5-(7-methyl-7-((R)-2-methylpyrrolidin-1-yl)-6,7,8,9-tetrahydro-5H-benzo[7]annulen-2-yl)-1H-pyrazolo[3,4-b]pyridin-3-yl)benzenesulfonamide], the IC50 against human MER and against human TYRO3 was 100 to 1000 nM throughout.

With `NC(=O)c1ccc(-c2n[nH]c3ncc(-c4ccc5c(c4)CC[C@@H](N4CCCC4)CC5)cc23)cc1Cl` [Example 84, (S)-2-Chloro-4-(5-(7-(pyrrolidin-1-yl)-6,7,8,9-tetrahydro-5H-benzo[7]annulen-2-yl)-1H-pyrazolo[3,4-b]pyridin-3-yl)benzamide], the IC50 on human MER and against human TYRO3 was < 100 nM throughout.

`NC(=O)c1ccc(-c2n[nH]c3ncc(-c4ccc5c(c4)CCC(N4CCCC4)CC5)cc23)cc1` (centres unmarked) [Example 78, 4-(5-(7-(Pyrrolidin-1-yl)-6,7,8,9-tetrahydro-5H-benzo[7]annulen-2-yl)-1H-pyrazolo[3,4-b]pyridin-3-yl)benzamide]: the IC50 against human MER is 100 to 1000 nM; at human TYRO3, < 100 nM.

For `O=C(c1ccc(-c2n[nH]c3ncc(-c4ccc5c(c4)CC[C@@H](N4CCCC4)CC5)cc23)cc1Cl)N1CCC(O)CC1` [Example 85, (S)-(2-Chloro-4-(5-(7-(pyrrolidin-1-yl)-6,7,8,9-tetrahydro-5H-benzo[7]annulen-2-yl)-1H-pyrazolo[3,4-b]pyridin-3-yl)phenyl)(4-hydroxypiperidin-1-yl)methanone], the results for the IC50 at human MER and at human TYRO3 were 100 to 1000 nM and < 100 nM, respectively.

As to `Cc1cc(-c2n[nH]c3ncc(-c4ccc5c(c4)CC[C@@H](N4CCCC4)CC5)cc23)cc(F)c1C(N)=O` [Example 83, (S)-2-Fluoro-6-methyl-4-(5-(7-(pyrrolidin-1-yl)-6,7,8,9-tetrahydro-5H-benzo[7]annulen-2-yl)-1H-pyrazolo[3,4-b]pyridin-3-yl)benzamide], the IC50 against human MER and against human TYRO3 was < 100 nM throughout.

For the molecule `C[C@@H]1CCCN1C1CCc2ccc(-c3cnc4[nH]nc(-c5ccc(C6(O)CCOC6)c(Cl)c5)c4c3)cc2CC1` (stereo partly drawn) [Example 63, 3-[2-Chloro-4-(5-{7-[(2R)-2-methylpyrrolidin-1-yl]-6,7,8,9-tetrahydro-5H-benzo[7]annulen-2-yl}-1H-pyrazolo[3,4-b]pyridin-3-yl)phenyl]oxolan-3-ol], the IC50 at human MER and at human TYRO3 was 100 to 1000 nM in each case.

For `COC1CCN(C(=O)c2ccc(-c3n[nH]c4ncc(-c5ccc6c(c5)CC[C@@H](N5CCCC5)CC6)cc34)cc2Cl)CC1` [Example 66, (S)-(2-Chloro-4-(5-(7-(pyrrolidin-1-yl)-6,7,8,9-tetrahydro-5H-benzo[7]annulen-2-yl)-1H-pyrazolo[3,4-b]pyridin-3-yl)phenyl)(4-methoxypiperidin-1-yl)methanone], the values for the IC50 at human MER and on human TYRO3 were 100 to 1000 nM and < 100 nM, respectively.

As to `NC(=O)c1ccc(-c2n[nH]c3ncc(-c4ccc5c(c4)CCC(N4CCCC4)CC5)cc23)cc1Cl` (centres unmarked) [Example 77, 2-Chloro-4-(5-(7-(pyrrolidin-1-yl)-6,7,8,9-tetrahydro-5H-benzo[7]annulen-2-yl)-1H-pyrazolo[3,4-b]pyridin-3-yl)benzamide], the IC50 against human MER and on human TYRO3 was < 100 nM in each case.

For the molecule `C[C@@H]1CCCN1C1(C)CCc2ccc(-c3cnc4[nH]nc(-c5ccc(C(=O)NC6CC6)cc5)c4c3)cc2CC1` (stereo partly drawn) [Example 69, N-Cyclopropyl-4-(5-{7-methyl-7-[(2R)-2-methylpyrrolidin-1-yl]-6,7,8,9-tetrahydro-5H-benzo[7]annulen-2-yl}-1H-pyrazolo[3,4-b]pyridin-3-yl)benzamide], the IC50 on human MER and at human TYRO3 was 100 to 1000 nM each time.

For `C[C@@H]1CCCN1C1(C)CCc2ccc(-c3cnc4[nH]nc(-c5ccc(C(N)=O)c(Cl)c5)c4c3)cc2CC1` (stereo partly drawn) [Example 68, 2-Chloro-4-(5-{7-methyl-7-[(2R)-2-methylpyrrolidin-1-yl]-6,7,8,9-tetrahydro-5H-benzo[7]annulen-2-yl}-1H-pyrazolo[3,4-b]pyridin-3-yl)benzamide], the IC50 against human MER and at human TYRO3 was < 100 nM each time.

As for `COC1CCN(C(=O)c2ccc(-c3n[nH]c4ncc(-c5ccc6c(c5)CCC(C)(N5CCC[C@H]5C)CC6)cc34)cc2)CC1` (stereo partly drawn) [Example 89, (4-Methoxypiperidin-1-yl)(4-(5-(7-methyl-7-((R)-2-methylpyrrolidin-1-yl)-6,7,8,9-tetrahydro-5H-benzo[7]annulen-2-yl)-1H-pyrazolo[3,4-b]pyridin-3-yl)phenyl)methanone], the IC50 against human MER and against human TYRO3 was 100 to 1000 nM throughout.

In the case of `NS(=O)(=O)c1ccc(-c2n[nH]c3ncc(-c4ccc5c(c4)CC[C@@H](N4CCCC4)CC5)cc23)cc1Cl` [Example 91, (S)-2-Chloro-4-(5-(7-(pyrrolidin-1-yl)-6,7,8,9-tetrahydro-5H-benzo[7]annulen-2-yl)-1H-pyrazolo[3,4-b]pyridin-3-yl)benzenesulfonamide], the IC50 at human MER is 100 to 1000 nM; against human TYRO3 it was < 100 nM.

Turning to `COC1CCN(C(=O)c2ccc(-c3n[nH]c4ncc(-c5ccc6c(c5)CCC(C)(N5CCC[C@H]5C)CC6)cc34)cc2Cl)CC1` (stereo partly drawn) [Example 67, 1-[2-Chloro-4-(5-{7-methyl-7-[(2R)-2-methylpyrrolidin-1-yl]-6,7,8,9-tetrahydro-5H-benzo[7]annulen-2-yl}-1H-pyrazolo[3,4-b]pyridin-3-yl)benzoyl]-4-methoxypiperidine], the IC50 is 100 to 1000 nM on human MER and < 100 nM against human TYRO3.

With `CC1(N2CCC[C@@H]2CO)CCc2ccc(-c3cnc4[nH]nc(-c5ccc(S(=O)(=O)C6CC6)cc5)c4c3)cc2CC1` (stereo partly drawn) [Example 3, [(2R)-1-(2-{3-[4-(Cyclopropanesulfonyl)phenyl]-1H-pyrazolo[3,4-b]pyridin-5-yl}-7-methyl-6,7,8,9-tetrahydro-5H-benzo[7]annulen-7-yl)pyrrolidin-2-yl]methanol], the half-maximal inhibitory concentration (IC50) on human MER is 100 to 1000 nM; against human TYRO3 it was < 100 nM.
